Measurements published in patent US10383909B2, “Use of a plant extract, pharmaceutical compositions and use thereof” (HEBRON FARMACEUTICA PESQUISA, DESENVOLVIMENTO E INOVACAO …, priority 2010, dated 2019).
“And” between values parts separate entries of the source, which are not always exact repeats. Identical values can stand only once.

Legend:
Type in all cases: in vivo, human
[1] = Intensity of gastritis by histopathological examination before and after treatment (Sydney System)
Protocol: (§1) Patients included in the sample performed two esophagogastroduodenoscopy tests (EGD) with biopsy and analysis for Helicobacter pylori. The first test was made before the treatment, and the second, after four weeks (28 days) on medication. The protocol for administration of medications included: ingestion of one (1) the tablet based on Aroeira (about 233.60 mg) twice daily for four weeks (28 days), or the ingestion of 20 mg Omeprazole, two tablets twice daily for the same period. Classification with gradations and intensity of gastritis was based on the Sydney System. For data analysis, we used the Epi Info program, v.3.5.1, and Microsoft Excel 2007. Since they are categorical variables, Odds Ratios were evaluated and significant results were verified through a crude chi-squared test or with a Yates correction, when applicable, and alternatively the Fisher Exact Test when indicated. A Z test was also used to compare proportions when the expected frequencies were greater than or equal to 5. Confidence intervals were calculated for 95% confidence, with significant differences smaller than 5%.

[2] = Patient questionnaire on gastritis symptoms before and after treatment; details: gastritis patients, oral, four weeks (28 days)
Source text: To evaluate the efficacy of hydroalcoholic extract of S. terebinthifolius in the form of a medication, 72 volunteer patients of both genders with diagnosed gastritis were selected. Anthropomorphic characteristics, such as age, weight and height were similar. The criteria for inclusion of patients in the sample were aged between 16 and 80 years (mean age was 40 years), with diagnosis of gastritis confirmed by endoscopy and pathological examination, and consent after clarification for study participation. We excluded patients who were treated with proton pump inhibitors, anti-inflammatory non-steroidal, H-2 receptor blockers and/or antacids during the month preceding the study.
The sample was randomly divided into two groups:
Group I—38 patients who used the medication based on Aroeira (Schinus terebinthifolius Raddi);
Group II—34 patients who used the drug Omeprazole (control group).
The protocol for administration of medications included: ingestion of one (1) the tablet based on Aroeira (about 233.60 mg) twice daily for four weeks (28 days), or the ingestion of 20 mg Omeprazole, two tablets twice daily for the same period.
For data analysis, we used the Epi Info program, v.3.5.1, and Microsoft Excel 2007. Since they are categorical variables, Odds Ratios were evaluated and significant results were verified through a crude chi-squared test or with a Yates correction, when applicable, and alternatively the Fisher Exact Test when indicated. A Z test was also used to compare proportions when the expected frequencies were greater than or equal to 5. Confidence intervals were calculated for 95% confidence, with significant differences smaller than 5%.
The results were obtained through a questionnaire completed by each patient, under the supervision of a specialist.

[3] = Esophagogastroduodenoscopy (EGD) before and after four weeks of treatment: gastritis present or absent; details: 2nd EGD after 28 days
Source text: as §1, with “To evaluate the efficacy of hydroalcoholic extract of S. terebinthifolius in the form of a medication, 72 volunteer patients of both genders with diagnosed gastritis were selected. Anthropomorphic characteristics, such as age, weight and height were similar. The criteria for inclusion of patients in the sample were aged between 16 and 80 years (mean age was 40 years), with diagnosis of gastritis confirmed by endoscopy and pathological examination, and consent after clarification for study participation. We excluded patients who were treated with proton pump inhibitors, anti-inflammatory non-steroidal, H-2 receptor blockers and/or antacids during the month preceding the study. Patients” for “Patients”

Helicobacter pylori = assay: Analysis for Helicobacter pylori in biopsy after treatment; details: after 28 days
Protocol: as §1, with “period.” for “period. Classification with gradations and intensity of gastritis was based on the Sydney System.”

[4] = intensity before treatment Mild/Discrete
[5] = intensity before treatment Moderate

Question: With COc1ccc2[nH]c([S+]([O-])Cc3ncc(C)c(OC)c3C)nc2c1 (stereo not shown) [Omeprazole] as the molecule, how does the “Intensity after treatment Mild/Discrete, %” value [1, 4] read?
Answer: The value was 54.50%.

Question: And the “Intensity after treatment Mild/Discrete, No. of patients” value [1, 4]?
Answer: The value was 12.

Question: What about the “Intensity after treatment Moderate, %” value [1, 4] of the same molecule?
Answer: The value was 45.5%.

Question: What about the “Intensity after treatment Moderate, N of patients” value [1, 4] of the same molecule?
Answer: The value was 10.

Question: And the “Intensity after treatment Mild/Discrete, % (improvement)” value [1, 5]?
Answer: The value was 27.30%.

Question: What about the “Intensity after treatment Moderate, %” value [1, 5] of the same molecule?
Answer: Its value is 72.70%.

Question: What about the “Intensity after treatment Moderate, N of patients” value [1, 5] of the same molecule?
Answer: Its value is 8.

Question: And the “Percentage of improvement in symptoms after treatment: Abdominal discomfort relieved with meals” value [2]?
Answer: The value was 85.70%.

Question: And the “Percentage of improvement in symptoms after treatment: Frequent epigastric pain” value [2]?
Answer: Its value is 72.70%.

Question: What about the “Percentage of improvement in symptoms after treatment: Heartburn” value [2] of the same molecule?
Answer: The value was 71.40%.

Question: What about the “Percentage of improvement in symptoms after treatment: Nausea” value [2] of the same molecule?
Answer: Its value is 72.20%.

Question: What about the “Gastritis Absent after treatment, % (disappearance of endoscopic mucosal injury)” value [3] of the same molecule?
Answer: The value was 0%.

Question: What about the “Gastritis Absent after treatment, N° of patients” value [3] of the same molecule?
Answer: The value was 0.

Question: What about the “Gastritis Present after treatment, %” value [3] of the same molecule?
Answer: Its value is 100%.

Question: What about the “Gastritis Present after treatment, N° of patients” value [3] of the same molecule?
Answer: The value was 34.

Question: And the “H. pylori Absent after treatment, % (eradication rate)” value (Helicobacter pylori)?
Answer: Its value is 9.4% and 9.38%.

Question: And the “H. pylori Absent after treatment, N° of patients” value (Helicobacter pylori)?
Answer: The value was 3.

Question: What about the “H. pylori Present after treatment, %” value (Helicobacter pylori) of the same molecule?
Answer: The value was 90.63%.

Question: And the “H. pylori Present after treatment, N° of patients” value (Helicobacter pylori)?
Answer: The value was 29.
